Assay: xn = mol fraction of the nth substance listed
Conditions: 100 kPa, Liquid

CCNCC [diethylamine] + O
mass density [kg/m3]
Conditions	278.15 K	288.15 K	293.15 K	298.15 K	308.15 K
x1 = 0.0006	999.491	998.664	997.751	996.626	993.562
x1 = 0.0024	997.912	997.039	996.154	994.988	991.942
x1 = 0.0035	996.932	996.037	995.136	993.969	990.903
x1 = 0.0044	996.139	995.23	994.323	993.151	990.065
x1 = 0.0056	995.225	994.285	993.371	992.182	989.066
x1 = 0.0064	994.57	993.602	992.679	991.472	988.353
x1 = 0.0081	993.249	992.212	991.279	990.04	986.873
x1 = 0.0097	992.04	990.934	989.98	988.714	985.476
x1 = 0.0172	987.17	985.63	984.539	983.09	979.496
x1 = 0.0291	980.983	978.376	976.96	975.088	970.666
x1 = 0.04	976.381	972.612	970.596	968.411	962.812
x1 = 0.0799	957.078	949.316	945.543	941.882	936.416
x1 = 0.0962	–	939.288	–	932.747	927.169
x1 = 0.1023	–	935.289	–	928.614	923.171
x1 = 0.1157	–	927.131	–	918.262	–
x1 = 0.1191	933.215	925.183	920.953	916.971	910.193
x1 = 0.1717	905.317	896.85	892.377	888.178	883.177
x1 = 0.229	–	871.09	–	–	–
x1 = 0.2382	876.611	867.217	863.096	858.163	848.844
x1 = 0.2939	859.045	–	842.233	837.568	827.974
x1 = 0.3003	857.537	844.712	839.967	835.41	825.737
x1 = 0.3501	–	829.202	824.477	819.781	810.104
x1 = 0.3558	838.534	–	822.73	817.933	808.149
x1 = 0.3911	–	–	–	809.086	–
x1 = 0.4057	–	814.027	809.021	–	794.354
x1 = 0.4407	815.342	–	–	795.926	–
x1 = 0.4625	810.256	799.75	795.056	789.779	779.967
x1 = 0.4844	805.352	–	–	784.888	–
x1 = 0.5091	799.695	–	–	–	769.213
x1 = 0.523	–	–	781.055	–	766.718
x1 = 0.5287	–	–	–	775.014	–
x1 = 0.6144	779.133	768.288	763.538	759.804	748.753
x1 = 0.6304	775.979	–	760.21	–	745.249
x1 = 0.7017	763.313	–	747.769	742.589	732.049
x1 = 0.7022	–	752.772	–	742.461	732.247
x1 = 0.726	–	–	742.965	–	–
x1 = 0.7549	–	–	738.917	733.676	723.048
x1 = 0.7771	751.837	–	735.541	730.331	719.687
x1 = 0.805	749.039	737.02	731.853	726.558	–
x1 = 0.8523	741.596	729.358	724.287	718.777	708.199
x1 = 0.8755	735.261	–	–	715.631	–
x1 = 0.8822	–	725.559	719.965	714.728	–
x1 = 0.8941	–	–	718.394	713.135	702.403
x1 = 0.9019	732.413	–	–	712.05	–
x1 = 0.931	–	718.71	713.312	708.033	–
x1 = 0.941	726.848	–	712.088	706.818	696.061
x1 = 0.9589	724.66	–	–	704.314	–
x1 = 0.9727	–	–	708.394	703.131	692.387
x1 = 0.979	721.447	–	–	701.729	–
x1 = 1	719.94	709.52	704.59	698.97	688.29
